# Molecular target: T1, CXCR7 (Homo sapiens, UniProt P25106)
# T1 construct: host or cells: CHO-K1 (PathHunter CHO-K1 CXCR7 b-arrestin cell line, stably transfected)
# Assay: PathHunter CHO-K1 CXCR7 b-arrestin recruitment assay (CXCR7 agonistic activity)
# Format: cell-based
# Settings: PathHunter CHO-K1 CXCR7 b-arrestin cell line
# Outline: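 Stable CHO-K1 line with C-terminally ProLink-tagged CXCR7 and β-arrestin 2–EA fusion; β-arrestin recruitment restores β-gal activity, read by chemiluminescence after 1 h RT detection. Cells seeded 24 h, starved in OPTIMEM 3–4 h, exposed to compounds 90 min at 37 °C in HBSS/HEPES/BSA. Geometric-mean EC50 from repeated measurements.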
# T1 sequence (P25106 whole entry): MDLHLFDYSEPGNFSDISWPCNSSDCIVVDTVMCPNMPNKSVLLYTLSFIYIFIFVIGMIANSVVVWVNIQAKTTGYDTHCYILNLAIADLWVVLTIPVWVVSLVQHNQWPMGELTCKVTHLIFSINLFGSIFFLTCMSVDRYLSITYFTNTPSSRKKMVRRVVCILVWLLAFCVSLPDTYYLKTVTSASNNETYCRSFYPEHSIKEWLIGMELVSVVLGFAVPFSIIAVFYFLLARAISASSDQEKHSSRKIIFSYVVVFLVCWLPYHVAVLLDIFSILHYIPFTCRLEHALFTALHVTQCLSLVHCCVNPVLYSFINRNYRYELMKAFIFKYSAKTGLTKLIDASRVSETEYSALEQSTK
# T1 sequence (P32121 whole entry partner): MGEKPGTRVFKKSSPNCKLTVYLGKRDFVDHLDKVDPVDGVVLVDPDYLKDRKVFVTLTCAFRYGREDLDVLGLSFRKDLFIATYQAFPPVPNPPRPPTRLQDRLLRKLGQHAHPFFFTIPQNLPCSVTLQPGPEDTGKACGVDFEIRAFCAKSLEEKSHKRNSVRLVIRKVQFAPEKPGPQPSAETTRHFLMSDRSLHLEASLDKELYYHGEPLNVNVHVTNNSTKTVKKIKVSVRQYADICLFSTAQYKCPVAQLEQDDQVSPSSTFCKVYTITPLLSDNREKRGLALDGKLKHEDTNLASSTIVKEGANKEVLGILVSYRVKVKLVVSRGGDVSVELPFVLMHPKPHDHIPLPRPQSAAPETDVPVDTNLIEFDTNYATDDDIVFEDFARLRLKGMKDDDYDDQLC
row,Compound,EC50
1,"CCN1Cc2cccc(NCC(=O)N(CCN(C)C)Cc3ccccc3C(F)(F)F)c2CC1=O [Example 309, N-(2-Dimethylamino-ethyl)-2-(2-ethyl-3-oxo-1,2,3,4-tetrahydro-isoquinolin-5-ylamino)-N-(2-trifluoromethyl-benzyl)-acetamide]",24 nM
2,"CCN1Cc2cccc(NCC(=O)N(CCN(C)C)Cc3ncccc3C(F)(F)F)c2CC1=O [Example 310, N-(2-Dimethylamino-ethyl)-2-(2-ethyl-3-oxo-1,2,3,4-tetrahydro-isoquinolin-5-ylamino)-N-(3-trifluoromethyl-pyridin-2-ylmethyl)-acetamide]",78 nM
3,"CCN1Cc2cccc(NCC(=O)N(CCN3CCCC3)Cc3ccccc3C(F)(F)F)c2CC1=O [Example 311, 2-(2-Ethyl-3-oxo-1,2,3,4-tetrahydro-isoquinolin-5-ylamino)-N-(2-pyrrolidin-1-yl-ethyl)-N-(2-trifluoromethyl-benzyl)-acetamide]",24 nM
4,"CC(C)CN1Cc2cccc(NCC(=O)N(CCN(C)C)Cc3ccccc3C(F)(F)F)c2CC1=O [Example 312, N-(2-Dimethylamino-ethyl)-2-(2-isobutyl-3-oxo-1,2,3,4-tetrahydro-isoquinolin-5-ylamino)-N-(2-trifluoromethyl-benzyl)-acetamide]",37 nM
5,"CC(C)CN1Cc2cccc(NCC(=O)N(CCN(C)C)Cc3ncccc3C(F)(F)F)c2CC1=O [Example 313, N-(2-Dimethylamino-ethyl)-2-(2-isobutyl-3-oxo-1,2,3,4-tetrahydro-isoquinolin-5-ylamino)-N-(3-trifluoromethyl-pyridin-2-ylmethyl)-acetamide]",31 nM
6,"CC(C)CN1Cc2cccc(NCC(=O)N(CCN3CCCC3)Cc3ccccc3C(F)(F)F)c2CC1=O [Example 314, 2-(2-Isobutyl-3-oxo-1,2,3,4-tetrahydro-isoquinolin-5-ylamino)-N-(2-pyrrolidin-1-yl-ethyl)-N-(2-trifluoromethyl-benzyl)-acetamide]",23 nM
7,"CN(C)CCN(Cc1ccccc1C(F)(F)F)C(=O)CNc1cccc2c1CCN(CC1CC1)C2=O [Example 315, 2-(2-Cyclopropylmethyl-1-oxo-1,2,3,4-tetrahydro-isoquinolin-5-ylamino)-N-(2-dimethylamino-ethyl)-N-(2-trifluoromethyl-benzyl)-acetamide]",5 nM
8,"COCCN1CCc2c(/C=C/C(=O)N(Cc3ccccc3)C3CCS(=O)(=O)C3)cccc2C1 (centres unmarked) [Example 316, (E)-N-Benzyl-N-(1,1-dioxo-tetrahydro-1l6-thiophen-3-yl)-3-[2-(2-methoxy-ethyl)-1,2,3,4-tetrahydro-isoquinolin-5-yl]-acrylamide]",370 nM
9,"COCCN1CCc2c(/C=C/C(=O)N(CCN(C)C)Cc3ccccc3C(F)(F)F)cccc2C1 [Example 317, (E)-N-(2-Dimethylamino-ethyl)-3-[2-(2-methoxy-ethyl)-1,2,3,4-tetrahydro-isoquinolin-5-yl]-N-(2-trifluoromethyl-benzyl)-acrylamide]",5 nM
10,"COCCN1CCc2c(/C=C/C(=O)N(CCN(C)C)Cc3ncccc3C(F)(F)F)cccc2C1 [Example 318, (E)-N-(2-Dimethylamino-ethyl)-3-[2-(2-methoxy-ethyl)-1,2,3,4-tetrahydro-isoquinolin-5-yl]-N-(3-trifluoromethyl-pyridin-2-ylmethyl)-acrylamide]",7 nM
11,"COCCN1CCc2c(/C=C/C(=O)N(CCN(C)C(=O)OC(C)(C)C)Cc3ccccc3C(F)(F)F)cccc2C1 [Example 319, {2-[{(E)-3-[2-(2-Methoxy-ethyl)-1,2,3,4-tetrahydro-isoquinolin-5-yl]-acryloyl}-(2-trifluoromethyl-benzyl)-amino]-ethyl}-methyl-carbamic acid tert-butyl ester]",443 nM
12,"COCCN1CCc2c(/C=C/C(=O)N(CCC(C)(C)C)Cc3ncccc3C)cccc2C1 [Example 320, (E)-N-(3,3-Dimethyl-butyl)-3-[2-(2-methoxy-ethyl)-1,2,3,4-tetrahydro-isoquinolin-5-yl]-N-(3-methyl-pyridin-2-ylmethyl)-acrylamide]",154 nM
13,"COCCN1CCc2c(/C=C/C(=O)N(Cc3ccccc3C(F)(F)F)CC(O)COC)cccc2C1 (centres unmarked) [Example 321, (E)-N-(2-Hydroxy-3-methoxy-propyl)-3-[2-(2-methoxy-ethyl}-1,2,3,4-tetrahydro-isoquinolin-5-yl]-N-(2-trifluoromethyl-benzyl)-acrylamide]",244 nM
14,"COCCN1CCc2c(/C=C/C(=O)N(CCN3CCC(F)(F)CC3)Cc3ncccc3C(F)(F)F)cccc2C1 [Example 322, (E)-N-[2-(4,4-Difluoro-piperidin-1-yl)-ethyl]-3-[2-(2-methoxy-ethyl)-1,2,3,4-tetrahydro-isoquinolin-5-yl]-N-(3-trifluoromethyl-pyridin-2-ylmethyl)-acrylamide]",119 nM
15,"COCCN1CCc2c(/C=C/C(=O)N(Cc3ccccc3C(F)(F)F)CC(C)(C)O)cccc2C1 [Example 323, (E)-N-(2-Hydroxy-2-methyl-propyl)-3-[2-(2-methoxy-ethyl)-1,2,3,4-tetrahydro-isoquinolin-5-yl]-N-(2-trifluoromethyl-benzyl)-acrylamide]",182 nM
16,"COCCN1CCc2c(/C=C/C(=O)N(Cc3ccccc3C(F)(F)F)CC3(C)COC3)cccc2C1 [Example 324, (E)-3-[2-(2-Methoxy-ethyl)-1,2,3,4-tetrahydro-isoquinolin-5-yl]-N-(3-methyl-oxetan-3-ylmethyl)-N-(2-trifluoromethyl-benzyl)-acrylamide]",243 nM
17,"COCCN1CCc2c(/C=C/C(=O)N(CCC(C)(C)O)Cc3ccccc3C(F)(F)F)cccc2C1 [Example 325, (E)-N-(3-Hydroxy-3-methyl-butyl)-3-[2-(2-methoxy-ethyl)-1,2,3,4-tetrahydro-isoquinolin-5-yl]-N-(2-trifluoromethyl-benzyl)-acrylamide]",334 nM
18,"COCCN1CCc2c(/C=C/C(=O)N(CCN3CCC(F)(F)CC3)Cc3ncccc3Cl)cccc2C1 [Example 326, (E)-N-(3-Chloro-pyridin-2-ylmethyl)-N-[2-(4,4-difluoro-piperidin-1-yl)-ethyl]-3-[2-(2-methoxy-ethyl)-1,2,3,4-tetrahydro-isoquinolin-5-yl]-acrylamide]",184 nM
19,"COCCN1CCc2c(/C=C/C(=O)N(CCN(C)C)Cc3ncccc3Cl)cccc2C1 [Example 327, (E)-N-(3-Chloro-pyridin-2-ylmethyl)-N-(2-dimethylamino-ethyl)-3-[2-(2-methoxy-ethyl)-1,2,3,4-tetrahydro-isoquinolin-5-yl]-acrylamide]",20 nM
20,"COCCN1CCc2c(/C=C/C(=O)N(Cc3ncccc3Cl)CC(C)(C)O)cccc2C1 [Example 328, (E)-N-(3-Chloro-pyridin-2-ylmethyl)-N-(2-hydroxy-2-methyl-propyl)-3-[2-(2-methoxy-ethyl)-1,2,3,4-tetrahydro-isoquinolin-5-yl]-acrylamide]",293 nM
21,"CC(C)(O)CN(Cc1ncccc1Cl)C(=O)/C=C/c1cccc2c1CCN(CC1CC1)C2 [Example 329, (E)-N-(3-Chloro-pyridin-2-ylmethyl)-3-(2-cyclopropylmethyl-1,2,3,4-tetrahydro-isoquinolin-5-yl)-N-(2-hydroxy-2-methyl-propyl)-acrylamide]",23 nM
22,"CN(C)CCN(Cc1ncccc1Cl)C(=O)/C=C/c1cccc2c1CCN(CC1CC1)C2 [Example 333, (E)-N-(3-Chloro-pyridin-2-ylmethyl)-3-(2-cyclopropylmethyl-1,2,3,4-tetrahydro-isoquinolin-5-yl)-N-(2-dimethylamino-ethyl)-acrylamide]",2 nM
23,"O=C(/C=C/c1cccc2c1CCN(CC1CC1)C2)N(CCN1CCC(F)(F)CC1)Cc1ncccc1Cl [Example 334, (E)-N-(3-Chloro-pyridin-2-ylmethyl)-3-(2-cyclopropylmethyl-1,2,3,4-tetrahydro-isoquinolin-5-yl)-N-[2-(4,4-difluoro-piperidin-1-yl)-ethyl]-acrylamide]",13 nM
24,"COCCN1CCc2c(CCC(=O)N(CCN(C)C)Cc3ccccc3C(F)(F)F)cccc2C1 [Example 335, N-(2-Dimethylamino-ethyl)-3-[2-(2-methoxy-ethyl)-1,2,3,4-tetrahydro-isoquinolin-5-yl]-N-(2-trifluoromethyl-benzyl)-propionamide]",23 nM
25,"COCCN1CCc2c(CCC(=O)N(CCN(C)C)Cc3ncccc3C(F)(F)F)cccc2C1 [Example 336, N-(2-Dimethylamino-ethyl)-3-[2-(2-methoxy-ethyl)-1,2,3,4-tetrahydro-isoquinolin-5-yl]-N-(3-trifluoromethyl-pyridin-2-ylmethyl)-propionamide]",47 nM
26,"COCCN1CCc2c(CCC(=O)N(CCN(C)C(=O)OC(C)(C)C)Cc3ccccc3C(F)(F)F)cccc2C1 [Example 337, {2-[{3-[2-(2-Methoxy-ethyl)-1,2,3,4-tetrahydro-isoquinolin-5-yl]-propionyl}-(2-trifluoromethyl-benzyl)-amino]-ethyl}-methyl-carbamic acid tert-butyl ester]",429 nM
27,"COCCN1CCc2c(CCC(=O)N(CCC(C)(C)C)Cc3ncccc3C)cccc2C1 [Example 338, N-(3,3-Dimethyl-butyl)-3-[2-(2-methoxy-ethyl)-1,2,3,4-tetrahydro-isoquinolin-5-yl]-N-(3-methyl-pyridin-2-ylmethyl)-propionamide]",279 nM
28,"COCCN1CCc2c(CCC(=O)N(Cc3ccccc3C(F)(F)F)CC(O)COC)cccc2C1 (centres unmarked) [Example 339, N-(2-Hydroxy-3-methoxy-propyl)-3-[2-(2-methoxy-ethyl)-1,2,3,4-tetrahydro-isoquinolin-5-yl]-N-(2-trifluoromethyl-benzyl)-propionamide]",457 nM
29,"COCCN1CCc2c(CCC(=O)N(CCN3CCC(F)(F)CC3)Cc3ncccc3C(F)(F)F)cccc2C1 [Example 340, N-[2-(4,4-Difluoro-piperidin-1-yl)-ethyl]-3-[2-(2-methoxy-ethyl)-1,2,3,4-tetrahydro-isoquinolin-5-yl]-N-(3-trifluoromethyl-pyridin-2-ylmethyl)-propionamide]",277 nM

# — patent US9920010B2, “CXCR7 receptor modulators” (IDORSIA PHARMACEUTICALS LTD, priority 2013, dated 2018)
